Experimental data published in US20210386705A1, “APPLICATION OF CHIGLITAZAR AND RELATED COMPOUNDS THEREOF” (SHENZHEN CHIPSCREEN BIOSCIENCES CO., LTD., priority 2018, published 2021).

What was measured:
PPARγ = target: T1, PPARγ (Homo sapiens, UniProt P37231); experiment: PPAR reporter gene model in L-02 cells, PPARγ; format: cell-based; settings: luciferase reporter, 24 hours drug, read-out: Half-maximal activation concentration of reporter gene AC50, PPARγ
T1 construct: expressed in transfected cells; host or cells: human hepatocyte cell line L-02
T1 sequence (P37231 1-505): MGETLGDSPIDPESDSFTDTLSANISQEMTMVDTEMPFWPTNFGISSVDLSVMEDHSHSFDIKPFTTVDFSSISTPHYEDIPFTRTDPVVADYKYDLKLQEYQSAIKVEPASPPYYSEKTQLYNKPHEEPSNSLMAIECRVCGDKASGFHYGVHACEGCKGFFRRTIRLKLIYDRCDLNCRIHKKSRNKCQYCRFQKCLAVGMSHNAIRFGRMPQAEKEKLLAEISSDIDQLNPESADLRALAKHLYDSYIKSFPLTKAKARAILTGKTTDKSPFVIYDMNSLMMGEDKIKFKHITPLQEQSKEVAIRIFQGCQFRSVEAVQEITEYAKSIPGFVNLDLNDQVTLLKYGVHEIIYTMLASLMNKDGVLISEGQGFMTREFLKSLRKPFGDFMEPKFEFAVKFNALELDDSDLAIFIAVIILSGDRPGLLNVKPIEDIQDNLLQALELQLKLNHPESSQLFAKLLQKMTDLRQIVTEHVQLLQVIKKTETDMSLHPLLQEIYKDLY
T1 sequence (P19793 1-462 partner): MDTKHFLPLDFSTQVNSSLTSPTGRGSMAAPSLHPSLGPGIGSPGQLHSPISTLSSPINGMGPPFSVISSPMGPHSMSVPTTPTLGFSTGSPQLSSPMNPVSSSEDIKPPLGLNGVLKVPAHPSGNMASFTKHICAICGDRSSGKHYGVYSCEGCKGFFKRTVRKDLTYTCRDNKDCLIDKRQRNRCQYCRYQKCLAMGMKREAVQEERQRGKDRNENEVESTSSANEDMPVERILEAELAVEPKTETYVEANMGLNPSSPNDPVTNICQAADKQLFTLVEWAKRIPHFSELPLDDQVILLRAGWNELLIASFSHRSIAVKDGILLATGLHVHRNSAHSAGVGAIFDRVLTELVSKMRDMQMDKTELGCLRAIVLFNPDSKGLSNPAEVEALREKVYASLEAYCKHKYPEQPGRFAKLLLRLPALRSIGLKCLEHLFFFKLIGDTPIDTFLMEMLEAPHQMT
Experimental: The PPAR reporter gene model comprises three subtypes of expression plasmids, RXR expression plasmid, plasmid with luciferase reporter gene, and GFP expression plasmid as an external reference. The human hepatocyte cell line L-02 cells were seeded into 96-well plates at the density of 15,000 cells/well with about 50% plating rate, followed by culturing for 24 hours at 37° C. […] The fluorescence intensity (at wavelength 485-527 nm) of green fluorescent protein (GFP) in each well was firstly detected as an internal standard by a fluorescence detector, and then 30 μL of luciferase substrates (Promega, E151A) were added to each well. After slightly shaking to mix well, the […] were detected. The relative reporter gene activation intensity was obtained by the ratio of the fluorescence detection signal of the drugs to be tested to that of the solvent control, with both the signals normalized to the internal standard GFP signal. The half-maximal activation (AC50) of the drugs to be tested was calculated with the activity at various concentrations (shown in Table 1).

[1] = tested on: primary human hepatic stellate cells; experiment: PDGF-BB stimulated proliferation of hepatic stellate cells (EdU and MTT assay); format: cell-based; settings: EdU 24 hours, MTT 72 hours, FIGS. 1-2
Experimental: Primary human hepatic stellate cells (HSC) purchased from Sciencell Research Laboratories, Inc. were seeded into 96-well plates with complete growth media (Stellate Cell Medium) for 24 hours, followed by culturing overnight in culture media free of serum and growth factors, and then the culture media were replaced by fresh media containing platelet-derived growth factor (PDGF-BB) and the compounds to be tested (chiglitazar sodium or the reference compound PPARγ/α dual agonist pioglitazone purchased from Selleck Chemicals LLC) at various concentrations, and the cells were cultured for 24 hours. When the cells were treated with the compounds for the last 17 hours, EdU (5-ethynyl-2′-deoxyuridine) was added to the cells. Finally, the culture media were removed and the cells were fixed with formaldehyde. The amount of the EdU incorporated into the DNA of the cells was quantified by fluorescent Click-it EdU assay according to the manufacturer's instructions (Beyotime). […] The inhibition of cell proliferation by the compounds was determined by comparing the EdU incorporated value of the control group (FIG. 1). […]

THP-1 cells = experiment: Inflammatory factor gene expression (MCP-1, TNFα) in PMA-activated THP-1 cells (qPCR); format: cell-based, human; settings: 6 hours, FIG. 5
Experimental: Human acute monocytic leukemia mononuclear cell line (THP-1) cells were activated by a certain concentration of phorbol esters (Phorbol-12-myristate-13-acetate, PMA) and differentiated into macrophages. Through this cell model, the activating effects of sodium chiglitazar and other compounds on the expression of THP-1 related inflammatory factors were detected.
THP-1 cells were seeded into 6-well plates with complete growth media for 24 hours, and then the culture media were replaced by fresh media containing PMA and the compound to be tested (sodium chiglitazar) or the reference compound GFT505 (PPARα/δ dual agonist), and the cells were cultured for 6 hours. The total RNAs of the samples were extracted, and cDNA templates were synthesized by reverse transcription reaction (Transcriptor First Strand cDNA Synthesis Kit, Roche). Thereafter, a conventional PCR amplification kit (FastStart Universal SYBR@ Green Master (ROX), Roche) was used for semi-quantitative gene expression detection on the ABI StepOnePlus real-time quantitative PCR instrument.
The relative expression change of the target genes was obtained by using the internal reference β-actin gene (ACTB) as the standard for normalization, compared with the untreated cell samples, and the relative expression change folds were calculated (FIG. 5).

O=C(c1ccc(F)cc1)c1ccccc1N[C@@H](Cc1ccc(OCCn2c3ccccc3c3ccccc32)cc1)C(=O)[O-].[Na+] [sodium chiglitazar]
AC50 (PPARγ): 91 nM | Inhibition of in vitro proliferation of liver-derived fibroblasts [1]: had inhibitory activity | Inhibition of phorbol esters-mediated activation of monocyte and related gene expression (THP-1 cells): significantly inhibit
